From patent US20240390298A1, “CYCLOHEXYL BETA-HYDROXY ALKYL AMINES AND MEDICAL USES THEREOF” (ATROGI AB, priority 2021, published 2024) come the findings set out here.

Counter-ions that a name gives are not always drawn. Bounds are passed on as bounds.

For assay [1], the system named is L6-myotubes. Briefly: Glucose uptake in differentiated L6-myotubes (3H-2-deoxyglucose), compared to isoproterenol. Format: cell-based. The note with it: agonist 1×10^−5 M, 50 nM 3H-2-deoxyglucose. The procedure, abridged: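 Serum-starved differentiated L6 myotubes stimulated with agonist at 1×10^−5 M for 1 h 40 min, re-dosed in glucose-free medium for 20 min, then given 50 nM ^3H-2-deoxyglucose for 10 min. Uptake read by β-counting of NaOH lysates; activity expressed relative to isoproterenol.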

Assay [2] concerns L6-myotubes. Briefly: Measurement of intracellular cAMP levels in differentiated L6 cells (alpha screen cAMP kit), compared to isoproterenol. Format: cell-based. Particulars: Rattus norvegicus, L6, 0.25 h, agonist 1×10^−5 M, 15 min, read-out: Biological example 2: intracellular cAMP levels, activity compared to that of isoproterenol. A digest of the protocol:
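L6 myoblasts were differentiated into myotubes over 7 days in 2% FBS, then serum-starved overnight. Agonist at 1×10^−5 M final was applied for 15 min in HBSS with 1% BSA, 5 mM HEPES and 1 mM IBMX, pH 7.4. After ethanol extraction and lysis, cAMP was quantified by AlphaScreen, with activity expressed relative to isoproterenol.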
(Changes in cAMP serve as a functional read-out for many G protein-coupled receptors.)

Consider `CC(C)(NC[C@H](O)c1cncc(F)c1)[C@H]1CC[C@H](OCC(=O)O)CC1` [Example 127, 2-(((1R,4r)-4-(2-(((R)-2-(5-Fluoropyridin-3-yl)-2-hydroxyethyl)amino)-propan-2-yl)cyclohexyl)oxy)acetic acid], for which, in the assay on L6-myotubes [1], the “Biological example 1: glucose uptake, activity compared to that of isoproterenol” value is reported as “+ +”. For the same compound, the Emax at 10 µM in the assay on L6-myotubes [2] is under 25%.
The corresponding values for `CC(C)(NC[C@H](O)c1cccc(F)c1)[C@H]1CC[C@@H](OCC(=O)O)CC1` [Example 128, 2-(((1S,4s)-4-(2-(((R)-2-(3-Fluorophenyl)-2-hydroxyethyl)amino)propan-2-yl)cyclohexyl)oxy)acetic acid] are “+ +” and under 25%.
On to `CC(C)(C[C@H]1CC[C@@H](C#N)CC1)NC[C@H](O)c1cccc(F)c1` [Example 129, (1S,4s)-4-(2-(((R)-2-(3-Fluorophenyl)-2-hydroxyethyl)amino)-2-methylpropyl)cyclohexane-1-carbonitrile], for which the “Biological example 1: glucose uptake, activity compared to that of isoproterenol” value in the assay with L6-myotubes [1] is given as “+ + +”. The Emax at 10 µM in the assay on L6-myotubes [2] lay within 25 to 50%.
The like results for `CC(C)(C[C@H]1CC[C@H](N)CC1)NC[C@@H](O)c1cccc(C#N)n1` [Example 130, 6-((R)-2-((1-((1r,4R)-4-Aminocyclohexyl)-2-methylpropan-2-yl)amino)-1-hydroxyethyl)picolinonitrile trihydrochloride] were, in that order, “+ +” and under 25%.
The like results for `CC(C)(C[C@H]1CC[C@@H](N)CC1)NC[C@@H](O)c1cccc(C#N)n1` [Example 131, 6-((R)-2-((1-((1s,4S)-4-Aminocyclohexyl)-2-methylpropan-2-yl)amino)-1-hydroxyethyl)picolinonitrile trihydrochloride] were, in that order, “+ +” and under 25%.
The corresponding values for `CC(C)(C[C@H]1CC[C@H](N)CC1)NC[C@H](O)c1cccc(C#N)n1` [Example 132, 6-((S)-2-((1-((1r,4S)-4-Aminocyclohexyl)-2-methylpropan-2-yl)amino)-1-hydroxyethyl)picolinonitrile trihydrochloride] are “+ + +” and 25 to 50%.
As to `CC(C)(C[C@H]1CC[C@@H](NC(=O)OC(C)(C)C)CC1)NC[C@H](O)c1cccc(C#N)n1` [Example 133, tert-Butyl ((1R,4s)-4-(2-(((5)-2-(6-Cyanopyridin-2-yl)-2-hydroxyethyl)-amino)-2-methylpropyl)cyclohexyl)carbamate], the “Biological example 1: glucose uptake, activity compared to that of isoproterenol” value with L6-myotubes [1] was “+ +”. Further, the Emax at 10 µM in the assay with L6-myotubes [2] was under 25%.
The like results for `CC(C)(C[C@H]1CC[C@@H](N)CC1)NC[C@H](O)c1cccc(C#N)n1` [Example 134, 6-((S)-2-((1-((1s,4R)-4-Aminocyclohexyl)-2-methylpropan-2-yl)amino)-1-hydroxyethyl)picolinonitrile trihydrochloride] were, in that order, “+ +” and under 25%.
The like results for `CC(=O)N[C@H]1CC[C@H](CC(C)(C)NC[C@@H](O)c2cccc(C#N)n2)CC1` [Example 135, N-((1R,4r)-4-(2-(((R)-2-(6-Cyanopyridin-2-yl)-2-hydroxyethyl)amino)-2-methylpropyl)cyclohexyl)acetamide] were, in that order, “+ +” and under 25%.
As to `CC(C)(C[C@H]1CC[C@H](NS(C)(=O)=O)CC1)NC[C@@H](O)c1cccc(C#N)n1` [Example 136, N-((1R,4r)-4-(2-(((R)-2-(6-Cyanopyridin-2-yl)-2-hydroxyethyl)amino)-2-methylpropyl)cyclohexyl)methanesulfonamide], the “Biological example 1: glucose uptake, activity compared to that of isoproterenol” value in the assay on L6-myotubes [1] is “+ +”. Besides, the Emax at 10 µM in the assay on L6-myotubes [2] is under 25%.
The like results for `CC(=O)N[C@H]1CC[C@@H](CC(C)(C)NC[C@@H](O)c2cccc(C#N)n2)CC1` [Example 137, N-((1S,4s)-4-(2-(((R)-2-(6-Cyanopyridin-2-yl)-2-hydroxyethyl)amino)-2-methylpropyl)cyclohexyl)acetamide] were, in that order, “+ +” and under 25%.
The corresponding values for `CC(C)(C[C@H]1CC[C@@H](NS(C)(=O)=O)CC1)NC[C@@H](O)c1cccc(C#N)n1` [Example 138, N-((1S,4s)-4-(2-(((R)-2-(6-Cyanopyridin-2-yl)-2-hydroxyethyl)amino)-2-methylpropyl)cyclohexyl)methanesulfonamide] are “+ +” and under 25%.
As for `CC(=O)N[C@H]1CC[C@H](CC(C)(C)NC[C@H](O)c2cccc(C#N)n2)CC1` [Example 139, N-((1S,4r)-4-(2-(((S)-2-(6-Cyanopyridin-2-yl)-2-hydroxyethyl)amino)-2-methylpropyl)cyclohexyl)acetamide], the “Biological example 1: glucose uptake, activity compared to that of isoproterenol” value with L6-myotubes [1] is reported as “+ + +”. The Emax at 10 µM in the assay on L6-myotubes [2] lay within 25 to 50%.
The like results for `CC(C)(C[C@H]1CC[C@H](NS(C)(=O)=O)CC1)NC[C@H](O)c1cccc(C#N)n1` [Example 140, N-((1S,4r)-4-(2-(((S)-2-(6-Cyanopyridin-2-yl)-2-hydroxyethyl)amino)-2-methylpropyl)cyclohexyl)methanesulfonamide] were, in that order, “+ + +” and under 25%.
The like results for `CC(=O)N[C@H]1CC[C@@H](CC(C)(C)NC[C@H](O)c2cccc(C#N)n2)CC1` [Example 141, N-((1R,4s)-4-(2-(((S)-2-(6-Cyanopyridin-2-yl)-2-hydroxyethyl)amino)-2-methylpropyl)cyclohexyl)acetamide] were, in that order, “+ + +” and under 25%.
The corresponding values for `CC(C)(C[C@H]1CC[C@@H](NS(C)(=O)=O)CC1)NC[C@H](O)c1cccc(C#N)n1` [Example 142, N-((1R,4s)-4-(2-(((S)-2-(6-Cyanopyridin-2-yl)-2-hydroxyethyl)amino)-2-methylpropyl)cyclohexyl)methanesulfonamide] are “+ + +” and under 25%.
`CC(=O)N[C@H]1CC[C@@H](CC(C)(C)NC[C@H](O)c2cccnc2C)CC1` [Example 143, N-((1S,4s)-4-(2-(((R)—H-hydroxy-2-(2-methylpyridin-3-yl)ethyl)amino)-2-methylpropyl)cyclohexyl)acetamide dihydrochloride]: the “Biological example 1: glucose uptake, activity compared to that of isoproterenol” value with L6-myotubes [1] is reported as “+ + +”. The Emax at 10 µM in the assay with L6-myotubes [2] was under 25%.
The corresponding values for `Cc1ncccc1[C@@H](O)CNC(C)(C)C[C@H]1CC[C@@H](NS(C)(=O)=O)CC1` [Example 144, N-((1S,4s)-4-(2-(((R)-2-Hydroxy-2-(2-methylpyridin-3-yl)ethyl)amino)-2-methylpropyl)cyclohexyl)methanesulfonamide dihydrochloride] are “+ +” and under 25%.
The corresponding values for `CC(=O)N[C@H]1CC[C@H](CC(C)(C)NC[C@H](O)c2cccnc2C)CC1.Cl` [Example 145, N-((1R,4r)-4-(2-(((R)-2-Hydroxy-2-(2-methylpyridin-3-yl)ethyl)amino)-2-methylpropyl)cyclohexyl)acetamide dihydrochloride] are “+ + +” and under 25%.
The corresponding values for `Cc1ncccc1[C@@H](O)CNC(C)(C)C[C@H]1CC[C@H](NS(C)(=O)=O)CC1` [Example 146, N-((1R,4r)-4-(2-(((R)-2Hydroxy-2-(2-methylpyridin-3-yl)ethyl)amino)-2-methylpropyl)cyclohexyl)methanesulfonamide dihydrochloride] are “+ +” and under 25%.
In the case of `CC(C)(C[C@H]1CC[C@@H](NC(=O)OC(C)(C)C)CC1)NC[C@H](O)c1cccc(C(F)(F)F)n1` [Example 147, tert-Butyl ((1R,4s)-4-(2-(((S)-2-hydroxy-2-(6-(trifluoromethyl)pyridin-2-yl)ethyl)amino)-2-methylpropyl)cyclohexyl)carbamate], the “Biological example 1: glucose uptake, activity compared to that of isoproterenol” value with L6-myotubes [1] is “+ +”. Moreover, the Emax at 10 µM in the assay with L6-myotubes [2] was under 25%.
As for `CC(C)(C[C@H]1CC[C@H](NC(=O)OC(C)(C)C)CC1)NC[C@H](O)c1cccc(C(F)(F)F)n1` [Example 148, tert-Butyl ((1S,4r)-4-(2-(((S)-2-hydroxy-2-(6-(trifluoromethyl)pyridin-2-yl)ethyl)amino)-2-methylpropyl)cyclohexyl)carbamate], the “Biological example 1: glucose uptake, activity compared to that of isoproterenol” value with L6-myotubes [1] is “+ + +”. Moreover, the Emax at 10 µM in the assay on L6-myotubes [2] was under 25%.
The corresponding values for `CC(=O)N[C@H]1CC[C@@H](CC(C)(C)NC[C@H](O)c2cccc(C(F)(F)F)n2)CC1` [Example 149, N-((1R,4s)-4-(2-(((S)-2-Hydroxy-2-(6-(trifluoromethyl)pyridin-2-yl)-ethyl)amino)-2-methylpropyl)cyclohexyl)acetamide dihydrochloride] are “+ +” and under 25%.
The like results for `CC(C)(C[C@H]1CC[C@@H](NS(C)(=O)=O)CC1)NC[C@H](O)c1cccc(C(F)(F)F)n1` [Example 150, N-((1R,4s)-4-(2-(((S)-2-Hydroxy-2-(6-(trifluoromethyl)pyridin-2-yl)ethyl)-amino)-2-methylpropyl)cyclohexyl)methanesulfonamide dihydrochloride] were, in that order, “+ + +” and under 25%.
